Active and inactive are the calls of the source.
Experiments:
[1] = target: Cytochrome P450 3A4 (Homo sapiens, UniProt P08684);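 also: CYP3A4 tested as one member of a cytochrome P450 panel screen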
[2] = target: Estrogen receptor beta (Homo sapiens, UniProt Q92731);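 also: recombinant ER-beta bound to coactivator SRC1 peptide in presence of estradiol agonist; inhibitors block coactivator peptide binding and lower the FRET signal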
[3] = Trypanosoma cruzi growth suppression in host cells – NIH3T3 host cells, beta-gal luminescence, confirmation (AID 2044); format: functional, cell-based;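 also: intracellular parasites grown in NIH/3T3 mouse fibroblasts as host cells; luminescent beta-galactosidase reporter signal from transgenic T. cruzi replicating inside host cells; inhibitors lower the luminescence signal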
[4] = NIH3T3 cell viability loss – ATP luminescence, mouse fibroblasts, counter-screen, dose response (AID 2010); format: functional, cell-based;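 also: cells exposed to compound for about 90 hours before reading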
[5] = target: DNA dC->dU-editing enzyme APOBEC-3G (Homo sapiens, UniProt Q9HC16); assay: Dose Response confirmation of small molecule APOBEC3G DNA Deaminase Inhibitors via a fluorescence-based single-stranded DNA deaminase assay. [Related pubchem assays (depositor defined):AID493012, AID493028]; format: functional
[6] = target: T1, Fatty acid synthase (Homo sapiens, UniProt P49327); assay: inhibition of human FAS-TE enzyme activity – biochemical, endpoint fluorescence intensity, uHTS hits, dose response (AID 624327); format: functional;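 also: fluorescence from hydrolysis of an O-methyl fluorescein acyl ester substrate by the enzyme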
[7] = target: T1, Fatty acid synthase; assay: inhibition of human FAS-TE enzyme activity – biochemical, kinetic fluorescence intensity, dose response (AID 624326); format: functional;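 also: rate of fluorescence rise from hydrolysis of a fluorogenic O-methyl fluorescein ester substrate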
[8] = target: Eukaryotic translation initiation factor 4E (Mus musculus, UniProt P63073); assay: blockers of eIF4G binding by eIF4E – biochemical, TR-FRET, dose response (AID 855); format: functional;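 also: potency for disrupting eIF4E binding to eIF4GI seen as loss of FRET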
[9] = cells; format: functional
[10] = system: H9c2; assay: cells; format: functional, cell-based; details: Rattus norvegicus, H9c2, Myocardium;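 also: confirmatory concentration-response retest of ultra-high-throughput screening hits for modulation of myocardial damage; cell death induced by hydrogen peroxide oxidative stress; compound pretreatment for 60 min then peroxide exposure for 2 h; potency is for protecting the cells against peroxide damage rather than for killing them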
[11] = viability of PTEN-deleted HCT116 cells – cell-based, HCT116 PTEN knockout, dose response (AID 1047); format: functional;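 also: HCT116 colon tumor cells with PTEN knocked out; cells exposed to compound for 60 hours before readout; potency for loss of cell viability measured by luminescence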
[12] = viability of HCT116 lacking mutant beta-catenin – cell-based, human colon tumor, dose response (AID 1045); format: functional;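 also: HCT116 colon tumor cells with beta catenin knocked out; cells exposed to compound for 60 hours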
[13] = target: T2, RNA-binding protein pos-1 (Caenorhabditis elegans, UniProt G5EF15); assay: disruptors of C. elegans POS-1 RNA interaction – biochemical, fluorescence polarization, dose response (AID 1964);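 also: purified POS-1 fused to maltose binding protein made in E. coli; potency of compounds blocking POS-1 binding to fluorescent RNA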
T2 sequence (G5EF15 whole entry): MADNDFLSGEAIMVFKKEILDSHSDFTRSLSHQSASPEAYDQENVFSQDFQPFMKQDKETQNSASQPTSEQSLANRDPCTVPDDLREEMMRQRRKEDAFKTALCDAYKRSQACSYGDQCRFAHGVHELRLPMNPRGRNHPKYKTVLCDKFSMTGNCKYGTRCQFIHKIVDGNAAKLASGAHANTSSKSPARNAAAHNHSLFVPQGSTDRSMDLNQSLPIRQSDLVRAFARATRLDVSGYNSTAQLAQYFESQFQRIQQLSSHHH

[14] = target: T3, Zinc finger protein mex-5 (Caenorhabditis elegans, UniProt Q9XUB2); assay: potency of MEX-5 RNA-binding blockers – biochemical, C. elegans, fluorescence polarization, dose response (AID 1960)
T3 sequence (Q9XUB2 whole entry): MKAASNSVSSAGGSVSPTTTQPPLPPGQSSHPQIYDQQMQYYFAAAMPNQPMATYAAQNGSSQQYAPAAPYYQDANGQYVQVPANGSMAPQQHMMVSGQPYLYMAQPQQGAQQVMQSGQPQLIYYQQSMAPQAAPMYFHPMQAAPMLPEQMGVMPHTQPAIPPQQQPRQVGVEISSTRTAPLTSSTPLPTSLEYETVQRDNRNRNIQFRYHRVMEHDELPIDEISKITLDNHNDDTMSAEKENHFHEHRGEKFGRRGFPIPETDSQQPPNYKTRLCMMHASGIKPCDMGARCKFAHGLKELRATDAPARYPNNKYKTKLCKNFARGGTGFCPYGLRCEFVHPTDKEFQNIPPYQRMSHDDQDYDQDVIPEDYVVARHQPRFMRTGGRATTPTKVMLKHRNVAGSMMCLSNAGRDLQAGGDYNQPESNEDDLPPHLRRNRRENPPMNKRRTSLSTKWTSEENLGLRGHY

[15] = target: Luciferin 4-monooxygenase (Photinus pyralis, UniProt P08659); assay: inhibition of purified Photinus pyralis luciferase – biochemical, luminescence, dose response (AID 1891)
[16] = Luminescence Cell-Based Dose Confirmation HTS to Identify Inhibitors of Platelet Dense Granule Release. [Related pubchem assays: 1663 (Primary HTS), 1678 (Summary of Project)]; format: functional
[17] = target: 26S proteasome non-ATPase regulatory subunit 14 (Homo sapiens, UniProt O00487); assay: inhibition of proteasome subunit RPN11 – biochemical, fluorescence polarization, uHTS hits, confirmation (AID 602368); format: functional
[18] = target: T4, Corticotropin-releasing factor receptor 2/Corticotropin-releasing factor-binding protein (Homo sapiens, UniProt P24387+Q13324); assay: activators of CRF receptor 2 with binding protein – uHTS hits, confirmation (AID 602473); format: functional; details: read-out: EC50_Mean
T4 sequence (Q13324 whole entry): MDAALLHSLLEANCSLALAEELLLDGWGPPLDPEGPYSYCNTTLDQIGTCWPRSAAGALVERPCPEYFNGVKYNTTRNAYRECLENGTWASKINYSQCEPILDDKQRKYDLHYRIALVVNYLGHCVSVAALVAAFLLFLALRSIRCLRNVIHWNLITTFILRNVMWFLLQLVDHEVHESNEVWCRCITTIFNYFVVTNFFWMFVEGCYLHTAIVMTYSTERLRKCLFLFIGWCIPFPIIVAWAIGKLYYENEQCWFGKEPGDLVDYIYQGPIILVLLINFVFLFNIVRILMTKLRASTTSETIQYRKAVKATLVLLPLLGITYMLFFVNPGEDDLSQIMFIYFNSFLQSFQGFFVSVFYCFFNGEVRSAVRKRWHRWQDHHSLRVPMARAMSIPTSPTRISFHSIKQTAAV
T4 sequence (P24387 whole entry): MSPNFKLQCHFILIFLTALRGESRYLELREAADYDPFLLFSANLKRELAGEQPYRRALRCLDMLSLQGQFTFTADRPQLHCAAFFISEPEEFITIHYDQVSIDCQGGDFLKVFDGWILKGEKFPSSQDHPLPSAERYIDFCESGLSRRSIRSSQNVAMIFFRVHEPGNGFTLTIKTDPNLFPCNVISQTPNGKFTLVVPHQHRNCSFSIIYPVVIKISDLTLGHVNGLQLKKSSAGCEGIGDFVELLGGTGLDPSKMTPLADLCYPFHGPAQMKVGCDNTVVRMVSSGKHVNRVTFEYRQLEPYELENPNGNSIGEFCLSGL

[19] = target: 72 kDa type IV collagenase (Homo sapiens, UniProt P08253); assay: Dose Response validation of uHTS RPN11 inhibitor hits using a MMP-2 Fluorescence assay.; format: functional
[20] = target: Prothrombin (Bos taurus, UniProt P00735); assay: thrombin protease inhibitors – biochemical, fluorescence polarization, uHTS hits, dose response (AID 602369); format: functional
[21] = target: Cytochrome P450 2C19 (Homo sapiens, UniProt P33261); assay: Cytochrome panel assay with activity outcomes. Panel member name: p450-cyp2c19 Compounds with AC50 equal or less than 10 uM are considered active; format: functional; details: read-out: AC50
[22] = target: T5, Cytochrome P450 1A2 (Homo sapiens, UniProt P05177);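 also: PubChem cytochrome P450 panel assay, CYP1A2 panel member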
T5 sequence (P05177 whole entry): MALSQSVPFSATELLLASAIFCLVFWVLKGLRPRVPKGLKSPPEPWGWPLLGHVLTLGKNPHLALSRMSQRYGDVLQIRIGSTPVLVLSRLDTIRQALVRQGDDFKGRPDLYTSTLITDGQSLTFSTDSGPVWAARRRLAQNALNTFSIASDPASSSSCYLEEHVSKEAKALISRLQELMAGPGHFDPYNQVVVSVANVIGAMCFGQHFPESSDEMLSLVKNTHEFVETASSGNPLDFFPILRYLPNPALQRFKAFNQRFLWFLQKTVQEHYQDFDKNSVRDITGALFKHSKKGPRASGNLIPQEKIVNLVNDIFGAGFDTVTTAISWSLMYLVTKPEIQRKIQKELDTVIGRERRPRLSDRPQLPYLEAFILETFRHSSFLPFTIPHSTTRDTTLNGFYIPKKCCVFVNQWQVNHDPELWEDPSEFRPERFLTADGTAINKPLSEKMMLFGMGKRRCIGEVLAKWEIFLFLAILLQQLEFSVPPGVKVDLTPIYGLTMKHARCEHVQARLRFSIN

[23] = target: Cytochrome P450 2C9 (Homo sapiens, UniProt P11712)
[24] = target: Paired box protein Pax-8 (Homo sapiens, UniProt Q06710); assay: PAX8 transcriptional activity inhibition in RMG-I – RMG-I cells, luciferase, cherry-pick, dose response (AID 687027); format: functional, cell-based;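 also: luciferase reporter driven by Pax8 target thyroperoxidase promoter measured by SteadyGlo luminescence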
[25] = OVCAR8 cell viability loss – plate reader, dry powder samples, PAX8 project, dose response (AID 743197); format: functional, cell-based; details: OVCAR-8

Sequence of Cytochrome P450 3A4 (P08684 whole entry): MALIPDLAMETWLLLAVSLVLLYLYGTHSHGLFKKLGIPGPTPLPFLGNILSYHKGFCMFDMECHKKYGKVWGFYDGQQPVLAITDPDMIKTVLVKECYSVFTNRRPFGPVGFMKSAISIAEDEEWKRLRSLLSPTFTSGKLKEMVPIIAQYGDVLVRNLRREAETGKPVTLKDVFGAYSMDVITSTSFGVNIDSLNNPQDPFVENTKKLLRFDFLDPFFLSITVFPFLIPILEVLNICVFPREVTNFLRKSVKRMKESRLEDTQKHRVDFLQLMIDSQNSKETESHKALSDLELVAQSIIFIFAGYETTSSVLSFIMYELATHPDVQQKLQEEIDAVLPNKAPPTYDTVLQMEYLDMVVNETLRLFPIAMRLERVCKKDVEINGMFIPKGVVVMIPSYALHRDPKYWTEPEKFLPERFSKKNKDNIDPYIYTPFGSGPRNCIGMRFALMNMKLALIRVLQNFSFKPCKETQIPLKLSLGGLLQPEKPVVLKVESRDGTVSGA
Sequence of Paired box protein Pax-8 (Q06710 whole entry): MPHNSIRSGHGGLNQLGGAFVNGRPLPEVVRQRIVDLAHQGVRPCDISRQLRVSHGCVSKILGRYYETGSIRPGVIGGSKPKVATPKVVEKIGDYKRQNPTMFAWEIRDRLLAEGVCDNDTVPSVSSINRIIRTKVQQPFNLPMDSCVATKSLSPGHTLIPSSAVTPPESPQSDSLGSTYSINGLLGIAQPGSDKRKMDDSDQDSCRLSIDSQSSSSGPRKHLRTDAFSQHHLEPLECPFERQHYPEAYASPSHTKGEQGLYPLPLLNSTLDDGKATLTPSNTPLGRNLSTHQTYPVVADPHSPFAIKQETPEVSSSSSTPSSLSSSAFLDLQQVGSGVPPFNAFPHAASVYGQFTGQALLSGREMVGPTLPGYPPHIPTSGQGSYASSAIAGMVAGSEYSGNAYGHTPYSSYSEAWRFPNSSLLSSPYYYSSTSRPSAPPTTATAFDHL
Sequence of Estrogen receptor beta (Q92731 whole entry): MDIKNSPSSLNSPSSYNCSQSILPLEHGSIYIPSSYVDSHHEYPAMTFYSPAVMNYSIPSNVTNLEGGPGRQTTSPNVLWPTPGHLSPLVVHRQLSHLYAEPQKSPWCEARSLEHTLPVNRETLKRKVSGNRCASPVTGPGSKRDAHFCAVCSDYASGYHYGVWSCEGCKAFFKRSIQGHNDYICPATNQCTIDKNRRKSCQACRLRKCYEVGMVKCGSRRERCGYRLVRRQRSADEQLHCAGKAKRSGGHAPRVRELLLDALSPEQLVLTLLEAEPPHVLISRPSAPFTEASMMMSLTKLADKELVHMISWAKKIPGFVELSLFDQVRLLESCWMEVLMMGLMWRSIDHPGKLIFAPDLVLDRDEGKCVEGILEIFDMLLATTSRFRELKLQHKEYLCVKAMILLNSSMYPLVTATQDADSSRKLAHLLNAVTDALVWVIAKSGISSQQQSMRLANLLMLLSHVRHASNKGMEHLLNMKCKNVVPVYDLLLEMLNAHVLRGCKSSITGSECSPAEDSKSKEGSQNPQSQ
T1 sequence (P49327 whole entry): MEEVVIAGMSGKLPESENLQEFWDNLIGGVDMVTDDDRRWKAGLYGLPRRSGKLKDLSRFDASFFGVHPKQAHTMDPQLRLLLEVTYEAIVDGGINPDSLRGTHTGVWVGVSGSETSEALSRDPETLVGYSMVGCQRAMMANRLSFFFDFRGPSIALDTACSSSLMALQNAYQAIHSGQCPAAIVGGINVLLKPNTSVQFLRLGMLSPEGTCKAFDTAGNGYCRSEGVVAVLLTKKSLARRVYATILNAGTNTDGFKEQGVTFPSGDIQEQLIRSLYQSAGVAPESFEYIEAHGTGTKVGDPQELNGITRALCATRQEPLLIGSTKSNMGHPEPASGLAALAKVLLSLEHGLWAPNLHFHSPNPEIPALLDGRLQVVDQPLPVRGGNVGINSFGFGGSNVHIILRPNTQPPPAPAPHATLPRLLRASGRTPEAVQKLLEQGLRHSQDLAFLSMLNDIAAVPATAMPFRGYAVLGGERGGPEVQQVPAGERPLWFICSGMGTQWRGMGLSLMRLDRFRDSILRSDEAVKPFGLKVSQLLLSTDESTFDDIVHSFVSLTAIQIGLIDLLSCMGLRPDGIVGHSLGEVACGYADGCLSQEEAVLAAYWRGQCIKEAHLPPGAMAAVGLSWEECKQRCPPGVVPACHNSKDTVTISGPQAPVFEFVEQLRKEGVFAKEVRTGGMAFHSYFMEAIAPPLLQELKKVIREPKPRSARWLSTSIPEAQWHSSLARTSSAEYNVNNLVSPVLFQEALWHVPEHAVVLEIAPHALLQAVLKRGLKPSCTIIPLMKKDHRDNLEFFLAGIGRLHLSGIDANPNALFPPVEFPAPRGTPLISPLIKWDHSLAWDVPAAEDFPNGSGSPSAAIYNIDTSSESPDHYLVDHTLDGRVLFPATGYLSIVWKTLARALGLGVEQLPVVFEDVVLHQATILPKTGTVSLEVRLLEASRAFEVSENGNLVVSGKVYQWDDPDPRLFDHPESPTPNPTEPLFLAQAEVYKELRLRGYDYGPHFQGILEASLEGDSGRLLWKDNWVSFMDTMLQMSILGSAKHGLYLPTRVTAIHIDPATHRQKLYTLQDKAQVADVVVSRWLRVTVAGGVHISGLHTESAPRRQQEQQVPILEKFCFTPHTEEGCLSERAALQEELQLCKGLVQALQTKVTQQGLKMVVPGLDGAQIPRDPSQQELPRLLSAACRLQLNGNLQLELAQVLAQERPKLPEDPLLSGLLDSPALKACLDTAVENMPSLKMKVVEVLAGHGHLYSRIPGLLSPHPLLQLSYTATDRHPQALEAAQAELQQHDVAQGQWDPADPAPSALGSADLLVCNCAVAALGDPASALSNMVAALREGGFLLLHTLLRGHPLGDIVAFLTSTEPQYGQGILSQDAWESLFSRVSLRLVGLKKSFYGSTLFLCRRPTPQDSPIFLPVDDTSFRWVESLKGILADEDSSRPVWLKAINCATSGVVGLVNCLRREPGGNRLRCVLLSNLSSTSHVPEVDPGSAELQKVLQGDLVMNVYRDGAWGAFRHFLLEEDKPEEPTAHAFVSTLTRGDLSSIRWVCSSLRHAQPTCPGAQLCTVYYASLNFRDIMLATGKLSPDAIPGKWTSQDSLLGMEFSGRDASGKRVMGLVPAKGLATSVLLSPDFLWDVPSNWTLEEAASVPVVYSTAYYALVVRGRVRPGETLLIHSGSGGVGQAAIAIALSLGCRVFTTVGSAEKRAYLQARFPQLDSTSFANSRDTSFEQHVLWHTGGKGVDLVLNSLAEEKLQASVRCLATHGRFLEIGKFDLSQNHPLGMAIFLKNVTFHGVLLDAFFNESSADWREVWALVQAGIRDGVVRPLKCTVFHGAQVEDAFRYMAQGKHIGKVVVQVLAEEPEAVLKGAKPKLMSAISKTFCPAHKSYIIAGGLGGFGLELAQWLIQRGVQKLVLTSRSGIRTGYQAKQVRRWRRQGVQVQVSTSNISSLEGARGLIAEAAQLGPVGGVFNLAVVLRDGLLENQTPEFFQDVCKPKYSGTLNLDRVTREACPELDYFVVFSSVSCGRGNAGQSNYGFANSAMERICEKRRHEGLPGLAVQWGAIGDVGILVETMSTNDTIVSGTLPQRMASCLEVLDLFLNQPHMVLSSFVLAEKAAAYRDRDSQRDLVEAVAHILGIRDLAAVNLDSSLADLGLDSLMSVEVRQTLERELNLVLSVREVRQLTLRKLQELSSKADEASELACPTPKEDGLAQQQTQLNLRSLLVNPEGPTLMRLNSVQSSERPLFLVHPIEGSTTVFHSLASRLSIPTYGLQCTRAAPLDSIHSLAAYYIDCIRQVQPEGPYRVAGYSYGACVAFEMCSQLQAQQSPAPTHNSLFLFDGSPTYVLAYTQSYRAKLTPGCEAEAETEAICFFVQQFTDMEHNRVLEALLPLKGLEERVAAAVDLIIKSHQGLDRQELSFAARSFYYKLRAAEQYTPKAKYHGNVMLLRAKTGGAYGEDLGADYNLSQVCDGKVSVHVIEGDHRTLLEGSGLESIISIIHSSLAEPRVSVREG
Sequence of Cytochrome P450 2C19 (P33261 whole entry): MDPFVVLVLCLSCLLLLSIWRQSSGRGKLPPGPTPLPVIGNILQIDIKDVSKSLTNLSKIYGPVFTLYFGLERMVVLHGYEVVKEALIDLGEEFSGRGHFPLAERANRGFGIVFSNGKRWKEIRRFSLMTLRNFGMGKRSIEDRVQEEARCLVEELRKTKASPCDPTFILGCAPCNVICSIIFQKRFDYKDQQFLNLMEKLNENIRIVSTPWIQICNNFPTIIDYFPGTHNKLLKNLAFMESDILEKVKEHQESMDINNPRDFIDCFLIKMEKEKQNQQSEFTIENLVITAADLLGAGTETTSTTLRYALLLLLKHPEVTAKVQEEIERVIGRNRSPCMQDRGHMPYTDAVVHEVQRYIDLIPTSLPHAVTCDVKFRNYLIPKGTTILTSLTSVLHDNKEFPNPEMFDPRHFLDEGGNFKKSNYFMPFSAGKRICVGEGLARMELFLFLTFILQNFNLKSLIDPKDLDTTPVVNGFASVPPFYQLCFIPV
Sequence of 26S proteasome non-ATPase regulatory subunit 14 (O00487 whole entry): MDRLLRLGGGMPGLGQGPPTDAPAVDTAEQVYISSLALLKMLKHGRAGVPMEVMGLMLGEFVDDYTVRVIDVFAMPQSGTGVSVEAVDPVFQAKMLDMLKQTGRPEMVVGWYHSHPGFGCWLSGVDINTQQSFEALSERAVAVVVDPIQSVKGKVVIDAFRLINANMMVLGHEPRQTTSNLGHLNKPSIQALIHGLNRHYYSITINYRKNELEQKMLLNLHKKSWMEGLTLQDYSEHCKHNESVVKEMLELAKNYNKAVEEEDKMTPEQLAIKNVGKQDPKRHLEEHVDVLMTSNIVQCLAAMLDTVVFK
Sequence of Eukaryotic translation initiation factor 4E (P63073 whole entry): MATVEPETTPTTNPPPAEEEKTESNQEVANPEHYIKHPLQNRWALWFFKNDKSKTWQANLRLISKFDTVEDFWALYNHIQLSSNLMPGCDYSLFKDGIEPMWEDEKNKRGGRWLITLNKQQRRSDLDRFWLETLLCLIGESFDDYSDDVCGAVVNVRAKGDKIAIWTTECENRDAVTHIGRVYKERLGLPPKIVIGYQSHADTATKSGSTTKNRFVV

O=C(c1ccco1)N1CCC2(CCN(Cc3ccccc3)CC2)CC1
AC50 [1]: inconclusive

CCOc1ccccc1C(=O)N1CCN=C1SC
IC50 [2]: > 50 µM (not active)

COc1ccccc1NS(=O)(=O)c1cc(NC(=O)C2CCC2)ccc1N1CCCCC1
EC50 [3]: 2.44 µM (active)
EC50 [4]: > 30 µM (not active)
IC50 [5]: 46.8 µM (active)

O=C(O)CCCNc1c(C(=O)Nc2ccc(Cl)cc2)cc([N+](=O)[O-])cc1[N+](=O)[O-]
IC50 [6]: 5.31 µM (active)
IC50 [7]: 4.79 µM (active)

C=CCn1c(-c2cc(OC)c(OC)c(OC)c2)n[nH]c1=S
IC50 [8]: > 64 µM (inactive)

O=C(COC(=O)c1ccc([N+](=O)[O-])s1)Nc1ccc(Cl)cn1
IC50 [9]: 8.49 µM (active)
IC50 [10]: 22.2 µM (active)

CCOC(=O)CNC(=O)C(Cc1ccccc1)NS(=O)(=O)c1ccc2c(c1)CCC(=O)N2 (centres undefined)
IC50 [2]: > 50 µM (not active)

COCCNC(=O)CCCn1c(=O)c2ccccc2n(Cc2cccc([N+](=O)[O-])c2)c1=O
IC50 [6]: 11.6 µM (active)
IC50 [7]: 15.8 µM (active)

CCN1C2=C(C(=O)CCC2)C(c2ccc(O)c(Br)c2)C2=C1CCCC2=O
IC50 [2]: > 50 µM (not active)

O=C(Nc1nc(-c2cc(Cl)sc2Cl)cs1)c1ccc(Br)s1
EC50 [11]: 17.1 µM (active)
EC50 [12]: 20.2 µM (active)

O=C(NCCCCc1ccccc1)C1CC(c2ccc([N+](=O)[O-])cc2)=NO1 (centres undefined)
IC50 [6]: 13.6 µM (active)
IC50 [7]: 14.1 µM (active)

O=C(c1ccco1)N1CCC2(CCN(Cc3nccs3)CC2)CC1
AC50 [1]: inconclusive

Cc1ccc(-c2nc3cc(C(N)=O)ccc3c(O)c2O)cc1
EC50 [13]: 7.27 µM (active)
EC50 [14]: 8.44 µM (inconclusive)
IC50 [10]: 11.3 µM (active)

COC(=O)C1(C(F)(F)F)N=C2Sc3ccccc3N2C(N2CCOCC2)=N1 (centres undefined)
EC50 [15]: > 112 µM (not active)
EC50 [16]: > 112 µM (not active)
EC50 [11]: 23.9 µM (active)
EC50 [12]: 21.7 µM (active)

Nc1ccc(/C=C/C(=O)c2ccco2)cc1
IC50 [17]: 18 µM (active)
EC50 [18]: 7.4 µM (active)
IC50 [19]: > 100 µM (inactive)
IC50 [20]: 27.5 µM (active)

Cc1ccc(C(=O)ON=C2CCN(S(=O)(=O)c3ccccc3)CC2)cc1
AC50 [21]: 5.01 µM (inconclusive)
AC50 [22]: 28.2 µM (inconclusive)
AC50 [1]: inconclusive

Cc1oc(-c2ccc(Cl)cc2)nc1CN1CCC(C(=O)N2CCc3ccccc3C2)CC1
EC50 [11]: 16.5 µM (active)
EC50 [12]: 14.7 µM (active)

Oc1nc(CSc2nnc(-c3cccnc3)n2C2CCCCC2)nc2ccccc12
IC50 [10]: 22.1 µM (active)

CC(C)(C)c1ccc(C(=O)NC(Cc2ccccc2)C(=O)O)cc1 (centres undefined)
AC50 [21]: 22.4 µM (inconclusive)
AC50 [23]: 25.1 µM (inconclusive)
AC50 [1]: inconclusive

C[C@H](CO)N1C[C@H](C)[C@@H](CN(C)C(=O)NC2CCCCC2)Oc2c(NC(=O)Nc3ccc4c(c3)OCO4)cccc2C1=O
IC50 [6]: 1.66 µM (active)
IC50 [7]: 4.32 µM (active)

CCOc1ccc(Cl)cc1CNCCNCC(C)O.Cl (centres undefined)
AC50 [1]: inconclusive

O=CNc1cc(-c2ccc(C(=O)NC3CC3)cc2)cn2c(-c3ccc(F)c(Cl)c3)cnc12
IC50 [10]: > 79 µM (inactive)

COc1cc(CN2c3ccccc3C(=O)CS2(=O)=O)cc(OC)c1
IC50 [17]: > 100 µM (inactive)
IC50 [19]: > 100 µM (inactive)
IC50 [20]: > 100 µM (inactive)

O=C(Nc1cccc(F)c1)N1CCCCN2[C@@H](CO)[C@@H](c3ccc(-c4ccncc4)cc3)[C@@H]2C1
AC50 [24]: 32.2 µM (active)
AC50 [25]: > 70 µM (inactive)

CCCC#Cc1ccc([C@H]2[C@H]3CN(S(=O)(=O)Cc4ccccc4)CCCCN3[C@H]2CO)cc1
AC50 [24]: 10.9 µM (active)
AC50 [25]: 60.2 µM (active)

CN1c2ccc(-c3ccccc3)cc2[C@@H]2[C@@H](CCN2C(=O)NC2CCCCC2)[C@@H]1CO
AC50 [24]: 11.1 µM (active)
AC50 [25]: 49.6 µM (active)

O=S1(=O)CC/C(=N/Nc2ccc(C(F)(F)F)cn2)c2cc(F)ccc21
IC50 [8]: 50 µM (inactive)

O=C(O)CC(O)C(=O)O (centres undefined) [MALIC ACID]
AC50 [1]: inconclusive

— ChEMBL document CHEMBL1201862, “PubChem BioAssay data set” (2004)
